Assay results from patent EP0135770A2, “Imidazobenzodiazepine derivatives, process for their preparation and medicaments containing them” (F. HOFFMANN-LA ROCHE & CO. Aktiengesellschaft, priority 1983, dated 1985).

What was measured:
CF-1-Mäuse [1] = experiment: Rotating rod test (Rotierstabtest), mice observed 30 min after dosing; assay type: in vivo
Source text: Dieser Test ist eine Modifikation der von N.W. Dunham und T.S. Miya in J.A. Ph. A. Sci. Ed. 46, 208 (1957) beschriebenen Methode. CF-1-Mäuse, welche aufgrund ihrer Fähigkeit ausgewählt worden sind, sich während 2 Minuten auf einem Rotierstab von 30 mm Durchmesser und 16 Umdrehungen pro Minute halten zu können, werden verwendet. Gruppen von je 8 Mäusen werden 30 Minuten nach Verabreichung der Testverbindung auf den Rotierstab verbracht und während 2 Minuten beobachtet. Diejenigen Mäuse, die sich nicht während der vollen 2 Minuten auf dem Rotierstab halten können, werden als durch die Testverbindung beeinflusst qualifiziert. Die Anzahl derjenigen Mäuse, die sich auf dem Rotierstab nicht halten können, wird in Prozent der Gesamtanzahl Mäuse in jeder Gruppe bei den verschiedenen Dosen angegeben. Diese Prozentwerte werden gegen die Dosis auf logarithmischem Papier aufgezeichnet, und der ED5o-Wert wird nach der Methode von L.C. Miller und M.L. Tainter in Proc. Soc. Exp. Biol. Med. 57, 26 (1944) ermittelt.
Der Zweck des vorliegenden Tests ist die Ueberprüfung von chemischen Verbindungen im Hinblick auf ihre Wirkung auf den Muskeltonus und/oder die muskuläre Koordination. speziell diejenige von Muskelrelaxantien, Sedativa oder Stimulantien.

CF-1-Mäuse [2] = experiment: Intravenous antimetrazol test (Intravenöser Antimetrazoltest), protection against Metrazol convulsions; assay type: in vivo; details: Mus musculus, 1 h, oral dosing, Metrazol 70 mg/kg i.v. one hour later, 50% of animals without convulsions
Protocol: Männliche CF-1-Mäuse, welche 45-54 Tage alt sind und während ungefähr 24 Stunden vom Futter ferngehalten wurden, werden in diesem Test eingesetzt. Die Testverbindung, dispergiert in 5% Akazienöl, wird 3 Mäusen oral verabreicht und zwar bei einer Dosis, die 1/10 der im TSP-Test ermittelten Lethaldosis entspricht. Eine Stunde später wird Metrazol intravenös verabreicht (70 mg/kg: konvulsive Dosis 100 mg/kg) und die Versuchstiere während 30 Sekunden beobachtet, ob ein Schutz gegenüber den Krampfanfällen eintritt. Falls die Testverbindung oral aktiv ist, werden pro Dosis 3 Versuchstiere eingesetzt. Die Dosis, bei der 50% der Versuchstiere keinerlei Krampfanfälle erleiden, wird als ED50-Wert bezeichnet.
Gemacht Messungen: Die Anzahl der Versuchstiere, welche gegen Krampfanfälle geschützt sind.
Berechnun^qen: Falls die Prüfsubstanz aktiv ist und 3 Mäuse pro Dosis eingesetzt werden, wird der approximative ED -Wert nach der Methode von Miller und Tainter (Proc. Soc. Exp. Biol. med. 57:261 (1944)) berechnet. Falls 6 oder mehr Mäuse pro Dosis eingesetzt werden, wird der ED50--Wert sowie der 95%ige Vertrauensbereich mit Hilfe eines Computerprogramms berechnet, welches auf der Methode von D.J. Finney (Probit Analysis, Cambridge University Press. Cambridge, England, 1971) beruht.
Dieser Test eignet sich zur Evaluation von Antikonvulsiva und ist für eine Aussage bezüglich der anxiolytischen Wirkung relevant.

[3] = Mus musculus, po, 0.5 h, standard compounds, mice unable to stay 2 min on the rotating rod, 30 min after administration, read-out: ED50
[4] = Mus musculus, po, 0.5 h, compounds of the invention, mice unable to stay 2 min on the rotating rod, 30 min after administration, read-out: ED50

Row | Molecule | ED50 (CF-1-Mäuse [2]; compounds of the invention) [mg/kg] | ED50 (CF-1-Mäuse [1]; [4]) [mg/kg] | other results
1 | COc1ccc2c(c1)N(C[C@H](C)CN(C)C)c1ccccc1S2 [Methotrimeprazin, reference compound] | – | – | ED50 (CF-1-Mäuse [1]; [3]): 3.8 mg/kg
2 | NC(=O)c1ncn2c1CN=C(c1ccccc1Cl)c1ccc(Cl)cc1-2 [Beispiel 31, 9-Chlor-6-(2-chlorphenyl)-4H-imidazo[1,5-a][1,4]benzodiazepin-3-carboxamid] | 0.97 | > 200 | –
3 | NC(=O)c1ncn2c1CN=C(c1ccccc1Cl)c1ccccc1-2 [Beispiel 27, 6-(2-Chlorphenyl)-4H-imidazo[1,5-a][1,4]benzodiazepin-3-carboxamid] | 7.4 | > 200 | –
4 | CN1C(=O)CN=C(c2ccccc2)c2cc(Cl)ccc21 [Diazepam, reference compound] | – | – | ED50 (CF-1-Mäuse [2]; standard compounds): 1 mg/kg; ED50 (CF-1-Mäuse [1]; Mus musculus, po, 0.5 h): 7.4 mg/kg
5 | CC(=O)NC(=O)c1ncn2c1CN=C(c1ccccc1Cl)c1ccccc1-2 [Beispiel 68, N-Acetyl-6-(2-chlorphenyl)-4H-imidazo[1,5-a][1,4]benzodiazepin-3-carboxamid] | 1.3 | – | –
6 | CNC1=Nc2ccc(Cl)cc2C(c2ccccc2)=[N+]([O-])C1 [Chlordiazepoxyd, reference compound] | – | – | ED50 (CF-1-Mäuse [2]; standard compounds): 3.9 mg/kg; ED50 (CF-1-Mäuse [1]; [3]): 33.5 mg/kg
7 | N-Acetyl-6-(2-chlorphenyl)-4H-imidazo-[1,5-a][1,4]benzodiazepin-3-carboxamid-acetylester | – | – | ED50 (CF-1-Mäuse [1]; compounds of the invention, mice unable to stay 2 min on the rotating rod, 30 min after administration): >200 mg/kg p.o.
8 | CN(C)CCCN1c2ccccc2Sc2ccc(Cl)cc21 [Chlorpromazin, reference compound] | – | – | ED50 (CF-1-Mäuse [1]; [3]): 10 mg/kg
9 | CCC1(c2ccccc2)C(=O)NC(=O)NC1=O [Natriumphenobarbital, reference compound] | – | – | ED50 (CF-1-Mäuse [2]; standard compounds): 19 mg/kg
10 | Cc1nc(C(N)=O)c2n1-c1ccccc1C(c1ccccc1Cl)=NC2 [Beispiel 63, 6-(2-Chlorphenyl)-1-methyl-4H-imidazo[1,5-a][1,4]benzodiazepin-3-carboxamid] | 5.1 | > 200 | –
11 | NC(=O)c1ncn2c1C(O)N=C(c1ccccc1Cl)c1ccccc1-2 (centres unmarked) [Beispiel 72, 6-(2-Chlorphenyl)-4-hydroxy-4H-imidazo[1,5-a][1,4]benzodiazepin-3-carboxamid] | 0.86 | > 200 | –
